Experimental data as given in patent publication US20250073338A1, “CONJUGATE COMPOUNDS AND COMPOSITIONS” (REZUBIO PHARMACEUTICALS CO., LTD, priority 2023, published 2025).
Counter-ions that a name gives are not always drawn.

How the values were obtained:
[1] = molecular target: T1, GPR40 (Homo sapiens, UniProt O14842); test: IP1 accumulation assay in HEK293 cells stably expressing GPR40; format: cell-based; details: HEK293 cells stably expressing GPR40, 2 hours at 37° C.
T1 construct: expressed in transfected cells
Protocol: IP1 accumulation assay was used to evaluate the potency of compounds. HEK293 cells stably expressing GPR40 were cultured in 5% CO2 incubator (ThermoFisher) in maintenance media (Dulbecco's modified Eagle's medium with 4.5 g/L of glucose, 10% fetal bovine serum, 100 μg/mL Hygromycin, and Penicillin (100 U/mL)/Streptomycin (100 μg/mL)) till 100% confluency. Cells were harvested freshly, spun down at 300× g for 5 min, and resuspended in pre-warmed 1× stimulant buffer from Cisbio IP-One HTRF Detection kit (Cisbio). Cell density was adjusted to 2.0×10^6 cells/mL. DMSO was used as blank control and AMG-1638 (CAS #: 1142214-62-7) as positive control. Compounds were prepared at 10 mM in DMSO and 5 nL of 3× serially diluted compounds (10 concentrations) were added to each well of the 384-LDV assay plate (Corning) by using ECHO 550 (Labcyte). Five μL of cells in suspension were transferred into each well by using Multidrop Combi Reagent Dispenser (ThermoFisher). Assay plate was then sealed and incubated at 37° C. for 2 hours. IP-d2 reagent and anti-IP1 reagent were prepared following the manual (Cisbio). Five μL of IP1-d2 and then 5 μL of anti-IP1 antibody was added to each well sequentially. Assay plate was incubated at room temperature for 60 min and then read at 665 nm/615 nm on an Envision plate reader (PerkinElmer). The ratio of values obtained at 665 nm and 615 nm was used for calculation of IP1 accumulation: % Effect=(Ratiosample−Ratioblank)/(RatioAMG-1638−Ratioblank)×100. Dose curve was fitted and EC50 of each compound was calculated by using XLFit.

[2] = Pharmacokinetics in mice (IV and PO), plasma LC-MS/MS; format: in vivo, Male ICR (CD-1) mice; details: for Cl / AUC / half-life / Vd: IV (1 mpk); for AUC / half-life / Vd / Cmax / Tmax / bioavailability: male, ICR (CD-1), mouse, plasma; for AUC / half-life / Vd: 1 mg/kg; for half-life: read-out: T½ (converted); for Vd: read-out: Vss; for Cmax / Tmax / bioavailability: 10 mg/kg, PO (10 mpk); for bioavailability: oral bioavailability
Protocol: Male ICR (CD-1) mice at around 4-6 weeks with body weight of around 25 grams (n=3) were purchased from VT-River (Zhejiang, China). After 1-week acclimation, animals were dosed with exemplary compounds intravenously at 1 mpk or orally at 10 mpk (0.5% methylcellulose in PBS as vehicle for both routes of administration). Blood samples (30 μL) were collected via saphenous vein puncture at 5 (IV only), 15, 30, 60, 120, 240, 480, and 1440 min post dose. The blood samples were saved in 0.5 M K2EDTA coated tubes and centrifuged at 4,600 rpm at 4° C. for 5 min. Plasma samples were collected and stored in −80° C. till PK analysis.
Take 10 μL of K2EDTA-treated plasma samples of CD-1 mice, add 200 μL of precipitation solution with internal standard (5 ng/mL Terfenadine in MeOH/ACN), mix well by vortexing for 1 min at room temperature followed by centrifuge at 4° C. and 4000 rpm for 15 min. Save the supernatant as injection for LC-MS/MS quantification of exemplary compounds in plasma samples of mice.
Establish a standard curve before and after each analytical batch, accompanied by quality controls of low, medium, and high concentrations. The number of quality control samples is not less than 6 and should be equal to or more than the number of samples of each batch, and interspersed in sample measurement. Standard curve and quality control samples of each batch must meet the acceptance criteria.

[3] = system: C57BL/6 mice; test: oGTT study (oral glucose tolerance test); format: in vivo, Male C57BL/6 mice; details: 30 mpk oral gavage, blood glucose AUC 0-120 minutes after 5 g/kg glucose challenge
Protocol: (§1) Male C57BL/6 mice were purchased from Zhejiang Vital River Laboratories Co., Ltd (a branch of Charles River Laboratories) at around 7-8 weeks of age (n=8). Animal were kept under regular light/dark cycle (12 h light: 12 h dark, L^D) at room temperature and fed regular chow diet and tap water ad libitum in facility for more than one week. On study day, animals were fasted by removing food at 7:00 AM. Blood glucose was measured at 9:00 AM by a glucometer (Roche) via tail bleeding and mice were sorted to groups of treatment based on average blood glucose (˜[…]). The vehicle (0.5% methylcellulose) or exemplary compounds solutions (30 mpk dose) were mixed well and dosed by oral gavage (dosing volume=10 ml/kg body weight). At 1:00 PM, blood glucose was measured by a glucometer (0 min). Animals were then PO dosed with 5 g/kg glucose for oral glucose challenge. Blood glucose was then measured at 20, 40, 60, and 120 min by glucometer. At the end of study, 50 μl tail blood from treatment groups were collected and mixed with 4% sodium citrate (vol 9:1). Tubes were centrifuged in a benchtop centrifuge for 10 min at 8,000 RPM at 4° C. Plasma samples were separated and stored in −80° C. freezer for measurements of PK by LC-MS/MS.

[4] = Plasma drug concentration at end of oGTT study by LC-MS/MS; format: in vivo, Male C57BL/6 mice; details: male, C57BL/6, mouse, 30 mpk oral, 6 h post dose, read-out: Drug conc
Protocol: as §1

T1 sequence (O14842 whole entry): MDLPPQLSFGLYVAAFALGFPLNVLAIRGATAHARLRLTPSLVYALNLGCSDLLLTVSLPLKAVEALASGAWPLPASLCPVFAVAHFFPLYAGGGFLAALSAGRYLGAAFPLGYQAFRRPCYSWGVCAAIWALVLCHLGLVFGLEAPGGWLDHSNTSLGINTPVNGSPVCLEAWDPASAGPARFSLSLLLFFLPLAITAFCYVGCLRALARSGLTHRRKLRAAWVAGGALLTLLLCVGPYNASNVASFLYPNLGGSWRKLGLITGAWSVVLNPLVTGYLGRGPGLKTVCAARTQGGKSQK

Row | SMILES | EC50 [1] | Cl [2] | AUC [2] | half-life [2] | Vd [2] | Cmax [2] | Tmax [2] | bioavailability [2] | % change in AUC over vehicle [3] | concentration at 6 h [4]
1 | COc1ccc(C(=O)N(CC(C)(C)CCCCCCCCCCCCCCCCCCCC(=O)NCC[N+](C)(CC(=O)NCCN)CC(=O)NCCN)c2cccc(C)n2)c(N2CCC(COc3cc([C@@H](CC(=O)O)C4CC4)ccn3)CC2)c1 [Example 4] | 2140 pM | 0.22 ml/mL/kg | 54.1 µM·h | 8.2 h | 0.14 L/kg | 66.1 nM | 5.3 h | 0.16% | – | –
2 | COc1ccc(C(=O)N(CC(C)(C)CCCCCCCCCCCCCCCCCC(=O)NCCC[N+]23CC[N+](C)(CC2)CC3)c2cccc(C)n2)c(N2CCC(COc3cc([C@@H](CC(=O)O)C4CC4)ccn3)CC2)c1 [Example 19] | 70 pM | 0.43 ml/mL/kg | 28.5 µM·h | 4.7 h | 0.11 L/kg | 77 nM | 4 h | 0.31% | −29.7% | 347 ± 125 ng/mL
3 | COc1ccc(C(=O)N(CC(C)(C)CCCCCCCCCCCCCCCCCC(=O)NCCC[N+]23CCN(CC2)CC3)c2cccc(C)n2)c(N2CCC(COc3cc([C@@H](CC(=O)O)C4CC4)ccn3)CC2)c1 [Example 18, (S)-1-(3-(20-(2-(4-(((4-(2-carboxy-1-cyclopropylethyl)pyridin-2-yl)oxy)methyl)piperidin-1-yl)-4-methoxy-N-(6-methylpyridin-2-yl)benzamido)-19,19-dimethylicosanamido)propyl)-1,4-diazabicyclo[2.2.2]octan-1-ium TFA salt] | 240 pM | 0.32 ml/mL/kg | 33.7 µM·h | 5.1 h | 0.11 L/kg | 42 nM | 4 h | 0.15% | −26.4% | 274 ± 99 ng/mL
4 | COc1ccc(C(=O)N(CC(C)(C)CCCCCCCCCCCCCCCCCCCC(=O)NCCCN(CC(=O)O)CC(=O)O)c2cccc(C)n2)c(N2CCC(COc3cc([C@@H](CC(=O)O)C4CC4)ccn3)CC2)c1 [Example 13] | 760 pM | 0.14 ml/mL/kg | 88.9 µM·h | 6.5 h | 0.07 L/kg | 268 nM | 8 h | 0.52% | – | –
5 | COc1ccc(C(=O)N(CC(C)(C)CCCCCCCCCCCCCCCCCCCCCC[N+]23CCN(CC2)CC3)c2cccc(C)n2)c(N2CCC(COc3cc([C@@H](CC(=O)O)C4CC4)ccn3)CC2)c1 [Example 21, (S)-1-(24-(2-(4-(((4-(2-carboxy-1-cyclopropylethyl)pyridin-2-yl)oxy)methyl)piperidin-1-yl)-4-methoxy-N-(6-methylpyridin-2-yl)benzamido)-23,23-dimethyltetracosyl)-1,4-diazabicyclo[2.2.2]octan-1-ium] | 2040 pM | 0.67 ml/mL/kg | 18.5 µM·h | 7.2 h | 0.36 L/kg | 37 nM | 6.7 h | 0.34% | – | –
6 | COc1ccc(C(=O)N(CC(C)(C)CCCCCCCCCCCCCCCCCCCC(=O)NCCC[N+](C)(CC(=O)[O-])CC(=O)O)c2cccc(C)n2)c(N2CCC(COc3cc([C@@H](CC(=O)O)C4CC4)ccn3)CC2)c1 (some centres unmarked) [Example 14] | 630 pM | 0.20 ml/mL/kg | 68 µM·h | 6.7 h | 0.09 L/kg | 164 nM | 8 h | 0.37% | – | –
7 | COc1ccc(C(=O)N(CC(C)(C)CCCCCCCCCCCCCCCCCC(=O)NCC[N+](C)(CCCC(=O)NCCN)CCCC(=O)NCCN)c2cccc(C)n2)c(N2CCC(COc3cc([C@@H](CC(=O)O)C4CC4)ccn3)CC2)c1 [Example 17] | – | 0.10 ml/mL/kg | – | – | 0.08 L/kg | – | – | – | −26.9% | 237 ± 2 ng/mL
